Results reported in patent US9320698B2, “Peptide tyrosinase inhibitors and uses thereof” (Escape Therapeutics, Inc., priority 2011, dated 2016).
No end group written: not given here.

Legend:
human tyrosinase = molecular target: T1, human tyrosinase (Homo sapiens, UniProt P14679); experiment: Inhibition of freshly extracted human tyrosinase, L-dopa as substrate; assay type: biochemical; conditions: at 200 μM
T1 construct: cells were harvested and lysed using 1% Triton X-100 in 0.067 M potassium phosphate buffer (pH 6.8); endogenous in cells; host or cells: primary human melanocytes (gift from Dr. Todd Ridky, Stanford), clarified Triton X-100 lysate
T1 sequence (P14679 19-529): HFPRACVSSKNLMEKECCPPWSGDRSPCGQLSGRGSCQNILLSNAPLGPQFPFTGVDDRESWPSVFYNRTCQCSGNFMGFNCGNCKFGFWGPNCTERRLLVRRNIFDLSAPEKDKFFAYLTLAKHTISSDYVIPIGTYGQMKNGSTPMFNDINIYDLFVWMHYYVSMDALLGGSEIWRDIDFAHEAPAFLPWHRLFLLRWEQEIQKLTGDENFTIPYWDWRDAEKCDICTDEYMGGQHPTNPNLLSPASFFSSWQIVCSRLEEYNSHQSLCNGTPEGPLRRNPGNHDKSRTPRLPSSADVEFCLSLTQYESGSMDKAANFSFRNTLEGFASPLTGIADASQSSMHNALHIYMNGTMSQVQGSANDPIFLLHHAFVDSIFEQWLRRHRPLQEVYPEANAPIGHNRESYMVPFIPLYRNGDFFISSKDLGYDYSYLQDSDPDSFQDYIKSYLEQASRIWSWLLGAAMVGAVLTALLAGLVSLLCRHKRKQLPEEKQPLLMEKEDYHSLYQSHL

mushroom tyrosinase [1] = molecular target: T2, mushroom tyrosinase (Agaricus bisporus, UniProt C7FF04); experiment: Kinetic studies of mushroom tyrosinase (Lineweaver-Burk, nonlinear regression); assay type: biochemical
T2 sequence (C7FF04 1-392): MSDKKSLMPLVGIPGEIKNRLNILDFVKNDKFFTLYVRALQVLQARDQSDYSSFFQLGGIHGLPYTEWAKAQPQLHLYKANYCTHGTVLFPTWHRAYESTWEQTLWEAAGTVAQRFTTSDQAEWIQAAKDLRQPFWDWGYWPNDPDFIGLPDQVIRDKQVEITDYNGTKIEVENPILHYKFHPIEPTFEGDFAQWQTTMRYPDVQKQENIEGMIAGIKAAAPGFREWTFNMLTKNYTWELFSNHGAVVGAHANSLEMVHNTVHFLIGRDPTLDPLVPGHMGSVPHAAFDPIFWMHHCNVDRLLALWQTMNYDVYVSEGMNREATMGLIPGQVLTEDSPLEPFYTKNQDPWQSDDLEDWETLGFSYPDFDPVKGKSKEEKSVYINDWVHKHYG
T2 sequence (G1K3P4 entry or part of it, further chain): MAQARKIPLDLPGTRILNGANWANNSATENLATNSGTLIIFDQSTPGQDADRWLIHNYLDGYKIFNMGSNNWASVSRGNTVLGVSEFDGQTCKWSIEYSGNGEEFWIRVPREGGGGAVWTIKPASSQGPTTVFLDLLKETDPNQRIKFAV
Procedure: The concentration of mushroom tyrosinase [E] was 24 units/ml. […] [I] ranged from 0 to 0.3 mM. Data were obtained as mean values of 1/V, inverse of the increase of absorbance at wavelength of 475 nm per minute (ΔA475/min) for 5 independent trials. Michaelis Menten constant (Km) and the dissociation constant Ki were derived using nonlinear regression analysis with GraphPad Prism 5.
Experiments were conducted using the same protocol as above except for changes in concentration of [E], [S] and [I]. [E] was 24 units/ml, [S] was 0.05, 0.1, 0.25, 0.5, 0.75 and 1 mM, and [I] was 0, 0.03, 0.1, 0.3 and 1 mM. Lineweaver-Burk reciprocal plots were generated to determine the mode of inhibition (Burk, D., Lineweaver, H., and Horner, C. K. (1934) J Bacteriol 27, 325-340), and Michaelis Menten plots were used to determine Vmax and Km. Nonlinear regression using GraphPad Prism 5 software was used to determine Ki. Prism calculates the Ki using the equation of Cheng, Y., and Prusoff, W. H. (1973) Biochem Pharmacol 22, 3099-3108.

[2] = test system: melanocytes, keratinocytes and fibroblasts; conditions: for oligopeptides a minimum ratio (3 mM / IC50)
Excerpt: An ideal therapeutic agent should have a ratio that is higher than two to be considered safe for long-term use in humans.

tyrosinase = conditions: read-out: published IC50; published value; cited from earlier work
MNTI cells = experiment: Melanin content measurement in MNTI cells; assay type: cell-based, human; conditions: 50 μM HQ, 3 days
[3] = test system: primary human keratinocytes; conditions: 72 h
Procedure: (§1) The three cell types were incubated with varying concentrations of the test compounds for 72 h at 37° C. and then processed using the MTT assay. Data are presented as % toxicity relative to the control as a function of concentration, and plotted as means±S.E of 5 independent trials. **p<0.01.
(§2) Keratinocytes, fibroblast, and melanocyte proliferation rates were determined using a TACS® MTT Cell Proliferation Kit (R&D systems, Minneapolis, Minn.). Cells were plated at 2.5×10^4/well in 96-well plates in a humidified atmosphere with 5% CO2 at 37° C. Twenty-four h after plating, test samples were added and cultures were incubated for an additional 72 h. The remainder of the procedure was performed following the manufacturer's protocol.
(§3) Proliferation rates were then assessed at 3 d using an MTT assay.

[4] = test system: primary human fibroblasts; conditions: 72 h
Procedure: as §1, §2, §3

[5] = test system: primary human melanocytes; conditions: 72 h
Procedure: as §1, §2, §3

[6] = test system: primary human keratinocytes; conditions: 6 d
Procedure: (§4) Cells were seeded at equal numbers and incubated with varying concentrations of test samples for 1 day, 3 days and 6 days, harvested, stained with trypan blue, and then counted. The assay was carried out in triplicate, and the % cell death was calculated according to the formula shown in Examples.
(§5) Cellular toxicity was measured using a trypan blue dye exclusion assay. Cells were cultured in 6-well plates at a density of 4×10^5 cells/well for 1, 3, or 6 d in 2 ml of medium. […] The plates were incubated at 37° C. in a humidified 5% CO2 chamber, harvested at the appropriate time, treated with trypan blue, and then counted using a hemacytometer. Cytotoxicity was measured according to the following formula: [1−(# of cells in control−# of live cells in test sample)/# of cells in control]×100%.
(§6) The cytotoxic effect of P16-18 on primary human melanocytes, keratinocytes, and fibroblasts were then assessed at 1, 3, and 6 d using trypan blue exclusion.

[7] = test system: primary human fibroblasts; conditions: 6 d, 30 μM
Procedure: as §4, §5, §6

[8] = test system: primary human melanocytes; conditions: 6 d
Procedure: as §4, §5, §6

mushroom tyrosinase [9] = molecular target: T2, mushroom tyrosinase; experiment: Enzymatic assay of mushroom tyrosinase, L-tyrosine as substrate; assay type: biochemical
Procedure: The assay mixture was incubated at 37° C.
In order to assess this potential, their inhibitory activity against mushroom tyrosinase was tested.

Which “human tyrosinase activity reduced by” value (human tyrosinase) does the source give for Oc1ccc(O)cc1 [HQ, hydroquinone] here?
The value was 5%.

And the Nature of inhibition (mushroom tyrosinase [1]; Table 4, from Lineweaver Burk plots)?
Its Nature of inhibition is “competitive”.

And the “ratio of 50% cytotoxic concentration to IC50” value [2]?
Its value is “significantly less than one”.

And the IC50 (tyrosinase)?
Its IC50 is roughly 700 µM.

And the “melanin content reduced by” value (MNTI cells)?
Its value is 50±4%.

And the “reduction in proliferation rate” value ([3]; 100 μM)?
Its value is 30±3%.

And the “proliferation inhibited by” value ([3]; 3 mM)?
The value was “up to 63±3%”.

What about the “reduction in proliferation rate” value ([4]; 100 μM) of the same molecule?
The value was 45±2%.

What about the “proliferation inhibited by” value ([4]; 3 mM) of the same molecule?
The value was “over 90%”.

And the “reduction in proliferation rate” value ([5]; 100 μM)?
The value was 50±3%.

What about the “proliferation inhibited by” value ([5]; 3 mM) of the same molecule?
Its value is “over 90%”.

And the cell death ([6]; 300 μM)?
The cell death was 42±3%.

What about the “rate of cell death” value ([6]; 3 mM) of the same molecule?
The value was 77±4%.

What about the cell death [7] of the same molecule?
Its cell death is 60±2%.

And the melanocyte cell death ([8]; 20 μM)?
The melanocyte cell death was 50±3%.

And the cell death ([8]; 30 μM)?
The cell death was 70±3%.

What about the “cytotoxicity / cell death” value ([8]; 100 μM) of the same molecule?
The value was 100%.

What does the source list for “RRFVCC (chains of the parent or of the whole protein) [Peptide P15]”?
Ki (mushroom tyrosinase [1]; Table 4, mushroom tyrosinase): 167 ± 11 µM; IC50 (mushroom tyrosinase [9]; Table 4, mushroom tyrosinase): 1120 ± 50 µM; IC50 (mushroom tyrosinase [9]; mushroom tyrosinase): 1100 µM

With RRFVCC [Peptide P15] as the molecule, how does the “tyrosinase inhibition (in words)” value (mushroom tyrosinase [9]; mushroom tyrosinase) read?
Its value is “weak inhibition”.

For RRFVLL [Peptide P14], which IC50 (mushroom tyrosinase [9]; mushroom tyrosinase) is on record?
Its IC50 is 1800 µM.

With RRRYWYYR [Peptide P17] as the molecule, how does the “human tyrosinase activity reduced by” value (human tyrosinase) read?
The value was 12%.

For RRWWRRYY [Peptide P16], which “human tyrosinase activity reduced by” value (human tyrosinase) is on record?
Its value is 30%.

For RRYWYWRR [Peptide P18], which “human tyrosinase activity reduced by” value (human tyrosinase) is on record?
The value was 25%.
